Assay results reported in patent US5821353A, “DNA encoding 1,3 beta-D glucan synthase subunits” (Merck & Co., Inc., priority 1996, dated 1998).

Legend:
[1] = test system: S. cerevisiae YFK798 (fks1-1 + CN); assay: primary screen, zone size on agar (calcineurin counter screen); type: cell-based, Saccharomyces cerevisiae; settings: 20 ng FK506, 10 mcg CsA, 10 mcg L733,560, 20 mcg aculeacin, 20 mcg papulacandin, 48 h
Protocol: Counter screening strains were devised for identifying calcineurin inhibitors. Overexpression of yeast calcineurin in the fks1-1 mutant (strain YFK798) constitutes the most general of these. […] Glucan synthase inhibitors show neither effect and thus can be distinguished from calcineurin inhibitors.
(§1) Each strain is grown at 28°-30° C. in YPAD/10 mM CaCl2 medium with shaking at 220 rpm (to mid or late log phase). The cultures are diluted 1:10 with water, and the OD values of the dilutions are measured at 600 nm (against a blank of YPAD/10 mM CaCl2 similarly diluted 1:10 in water). The OD value is multiplied by 10 to estimate the OD of the culture. Portions (100 ml) of YPAD/10 mM CaCl2 medium containing 1.5% agar, equilibrated at 45° C. in a water bath, are seeded with culture such that the final cell density in the agar would have an OD value of 0.015 (i.e., 3×10^6 cfu/ml; a sample calculation is provided below). The seeded agar is poured into 500 cm^2 Nunc plates. Once the agar plates have solidified, 10 mcL aliquots of samples containing test compounds, such as fermentation extracts, are dissolved in water, 100% methanol or ethanol, or up to 50% DMSO and are placed on each member of the two-plate set in 11 by 8 arrays.
(§2) The plates are incubated for 48 h at 28°-30° C. Diameters of the zones are read to the outermost edge and recorded in mm. The clarity of the zone is reported as clear (no designation), hazy (h), or very hazy (vh). Very hazy zones are best seen by viewing the plate under an elevated light placed between the assay dish and a dark wall.

S. cerevisiae R560-1C = assay: secondary screen, zone size on agar; type: cell-based, Saccharomyces cerevisiae; settings: 20 ng FK506, 10 mcg CsA, 10 mcg L733,560, 20 mcg aculeacin, 20 mcg papulacandin
Protocol: (§3) For positively identifying glucan synthase inhibitors, screening with strain R560-1C and its parent W303-1A was instituted in a manner identical to that described for calcineurin inhibitors. Complete loss of a zone, or marked reduction in size, on R560-1C versus W303-1A indicates a glucan synthase inhibitor. No zones are seen with calcineurin inhibitors using this pair of strains.
as §1, §2

S. cerevisiae W303-1A = assay: secondary screen, zone size on agar; type: cell-based, Saccharomyces cerevisiae; settings: 20 ng FK506, 10 mcg CsA, 10 mcg L733,560, 20 mcg aculeacin, 20 mcg papulacandin
Protocol: as §3, §1, §2

[2] = test system: 1,3-beta-D glucan synthase from MY2144 (fks 1-3); assay: 1,3-beta-D glucan synthase assay, membrane preparation; type: biochemical, Saccharomyces cerevisiae; settings: membranes of MY2144 (fks 1-3)
Protocol: (§4) Cell free extracts were prepared from mutant and wild type cells grown to logarithmic phase as previously described (Kang and Cabib, PNAS, 83:5808-5812, 1986). After homogenization with glass beads, the unbroken cells and debris were removed by a low speed centrifugation (1,000×gfor 5 min). The supernatant fluids were centrifuged at 100,000×g for 60 min and the pellets were washed with 2.5 ml (per gram of wet cells) of buffer containing 0.05M potassium phosphate (pH 7.5), 0.5 mM DTT, and 1.0 mM PMSF. The washed pellet was resuspended in the same buffer containing 5% glycerol. This served as the microsomal membranes source containing both chitin and glucan synthase enzymatic activities. The standard 1,3-beta-D glucan synthase reaction was initiated by mixing 35 mcg protein in cocktail I, which included TEK buffer (125 mM Tris chloride, pH 7.5, 31 mM KF, and 1 mM EDTA), 25% PBS, pH 7.0, 3.31 mcM GTP-gamma-S, and 0.25% BSA in a total volume of 69 mcL, with cocktail II, which included 4 units alpha-amylase, 25 mcg UDP-glucose, and 1 microCi UDP-^3 H-glucose, in a total volume of 11 mcL. Following 150 minutes of incubation at 30° C., the incorporation of UDP-^[…] into glucan was measured after precipitation with trichloroacetic acid.
(§5) Crude enzyme preparations associated with cell membranes were tested for glucan and chitin synthesis activities. […]

[3] = test system: 1,3-beta-D glucan synthase from MY2145 (fks 1-4); assay: as above; type: biochemical, Saccharomyces cerevisiae; settings: membranes of MY2145 (fks 1-4)
Protocol: as §4, §5

Pneumocystis carinii = settings: rat model of P. carinii pneumonia; Schmatz et al. 1990; cited from earlier work

**Q.** Which “Primary Screen Zone size (mm)” value [1] does the source give for dihydropapulacandin [L-687,781] here?
**A.** Its value is 26-28 mm.

**Q.** What about the “Secondary Screen Zone size (mm)” value (S. cerevisiae R560-1C) of the same substance?
**A.** The value was 14-16 mm.

**Q.** And the “Secondary Screen Zone size (mm)” value (S. cerevisiae W303-1A)?
**A.** Its value is 15-18 mm.

**Q.** What about the IC50 [2] of the same substance?
**A.** The IC50 was 11.1 µg/mL.

**Q.** And the IC50 [3]?
**A.** The IC50 was 11.5 µg/mL.

**Q.** What about the “reducing the number of cysts in the lungs of infected rats” value (Pneumocystis carinii) of the same substance?
**A.** The value was “effective”.
